The results in this text go back to patent publication US20020026053A1, “Novel 3-(substituted) -2- indolinones compounds and use thereof as inhibitors of protein kinase activity” (priority 1997, published 2002).

SMILES strings stand for the structures.

This assay relates to FLK-1 receptor. Put plainly: FLK-1 Assay (cellular/catalytic ELISA, VEGF-stimulated phosphotyrosine). The format is cell-based. Also on record: concentration or dose not given beside the values. To be noted: protocol P.110. The method, boiled down:
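Receptor phosphotyrosine ELISA: Flk-1-expressing NIH3T3 C7#3 cells, starved overnight in 0.1% FBS medium, received compound (1:200 final dilution, 0.5% DMSO) for 2 h at 37 °C, then VEGF. Anti-FLK-1-captured receptor was probed with anti-phosphotyrosine UB40 and peroxidase/ABTS read-out, relative to cells without compound.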
In general terms: In an ELISA, binding on a coated surface is turned into a signal by an enzyme label.
Take `CNS(=O)(=O)c1ccc2c(c1)C(=Cc1cnc3ccccc3c1)C(=O)N2` [10740/D02]: the “Flk Kinase % Inhibition (P.110)” value came to 4.1%. Then `Cc1[nH]c2ccccc2c1C=C1C(=O)Nc2ccc(I)cc21` [10740/B08], with 6.6%. Then `Cc1[nH]c2ccccc2c1C=C1C(=O)Nc2c(Br)cc(Br)c(C)c21` [10740/H08], with 11.5%; and `O=C1Nc2ccc(S(=O)(=O)Nc3ccc(C(F)(F)F)cc3)cc2C1=Cc1cc(Br)cs1` [10740/E10], with 11.8%; and `COC1CCCN1C=C1C(=O)Nc2ccc(S(=O)(=O)Nc3ccc(C(F)(F)F)cc3)cc21` (stereo not drawn) [10740/E04], with 2.0%. With `O=C1Nc2ccc(S(=O)(=O)Nc3ccc(C(F)(F)F)cc3)cc2C1=Cc1cnc2ccccc2c1` [10740/E02], the “Flk Kinase % Inhibition (P.110)” value came to 9.6%. Take `Cc1c(Br)ccc2c1C(=Cc1ccc3ccccc3n1)C(=O)N2` [10740/C06]: the “Flk Kinase % Inhibition (P.110)” value is on record as −19.1%. Then `Cc1c(Br)cc(Br)c2c1C(=Cc1ccsc1)C(=O)N2` [10740/H05], with 5.8%; and `COC1CCCN1C=C1C(=O)Nc2ccc(I)cc21` (racemic) [10740/B04], with −0.3%; and `CNS(=O)(=O)c1ccc2c(c1)C(=Cc1cc(Br)cs1)C(=O)N2` [10740/D10], with 1.5%. As for `O=C1Nc2ccc(I)cc2C1=Cc1ccc2ccccc2n1` [10740/B06], the figure is −5.9%; as for `O=C1Nc2ccc(I)cc2C1=Cc1cc(Br)cs1` [10740/B10], 11.8%. Then `O=C1Nc2ccc(I)cc2C1=Cc1cnc2ccccc2c1` [10740/B02], with −17.0%; and `O=C1Nc2ccc(CCCl)cc2C1=Cc1ccc2ccccc2n1` [10740/G06], with −19.3%. Regarding `CCCCOc1ccc(C=C2C(=O)Nc3c(Br)cc(Br)c(C)c32)cc1` [10740/H11], the “Flk Kinase % Inhibition (P.110)” value turned out to be 7.4%. Then `Cc1c(Br)ccc2c1C(=Cc1ccsc1)C(=O)N2` [10740/C05], with −19.1%; and `COC1CCCN1C=C1C(=O)Nc2c(Br)cc(Br)cc21` (racemic) [10740/A04], with 1.3%. Consider `O=C1Nc2c(Br)cc(Br)cc2C1=Cc1ccnc2ccccc12` [10740/A03], for which the “Flk Kinase % Inhibition (P.110)” value is reported as 4.2%. As to `Cc1c(Br)cc(Br)c2c1C(=Cc1cn(C)c3ccccc13)C(=O)N2` [10740/H07], the “Flk Kinase % Inhibition (P.110)” value is 10.1%. Regarding `Cc1c(Br)ccc2c1C(=Cc1cnc3ccccc3c1)C(=O)N2` [10740/C02], the “Flk Kinase % Inhibition (P.110)” value was −5.9%. Consider `O=C1Nc2ccc(CCCl)cc2C1=Cc1ccnc2ccccc12` [10740/G03], for which the “Flk Kinase % Inhibition (P.110)” value is recorded as −2.0%. With `CNS(=O)(=O)c1ccc2c(c1)C(=Cc1ccnc3ccccc13)C(=O)N2` [10740/D03], the “Flk Kinase % Inhibition (P.110)” value is reported as 15.1%. On to `Cn1cc(C=C2C(=O)Nc3c(Br)cc(Br)cc32)c2ccccc21` [10740/A07], for which the “Flk Kinase % Inhibition (P.110)” value is −18.3%. As for `O=C1Nc2ccc(S(=O)(=O)Nc3ccc(C(F)(F)F)cc3)cc2C1=Cc1ccnc2ccccc12` [10740/E03], the figure is 0.2%; as for `CCCCOc1ccc(C=C2C(=O)Nc3ccc(I)cc32)cc1` [10740/B11], 0.7%. For `Cc1c(Br)cc(Br)c2c1C(=Cc1ccc3ccccc3n1)C(=O)N2` [10740/H06], the “Flk Kinase % Inhibition (P.110)” value turned out to be 3.2%. As for `O=C1Nc2ccc(S(=O)(=O)Nc3ccc(C(F)(F)F)cc3)cc2C1=Cc1ccsc1` [10740/E05], the figure is 28.7%; as for `Cc1c(Br)ccc2c1C(=Cc1cn(C)c3ccccc13)C(=O)N2` [10740/C07], 1.1%; as for `Cc1c(Br)cc(Br)c2c1C(=Cc1cnc3ccccc3c1)C(=O)N2` [10740/H02], −3.7%.

With `CNS(=O)(=O)c1ccc2c(c1)C(=CN1CCCC1OC)C(=O)N2` (stereo not drawn) [10740/D04], the “Flk Kinase % Inhibition (P.110)” value is listed as −2.0%.

For the compound `Cc1[nH]c2ccccc2c1C=C1C(=O)Nc2ccc(S(=O)(=O)N3CCOCC3)cc21` [10740/F08], the “Flk Kinase % Inhibition (P.110)” value was −5.0%. `CCCCOc1ccc(C=C2C(=O)Nc3ccc(S(=O)(=O)Nc4ccc(C(F)(F)F)cc4)cc32)cc1` [10740/E11]: the “Flk Kinase % Inhibition (P.110)” value is recorded as 17.1%. As for `COC1CCCN1C=C1C(=O)Nc2ccc(Br)c(C)c21` (stereo not drawn) [10740/C04], the figure is −3.4%; as for `Cc1c(Br)ccc2c1C(=Cc1ccnc3ccccc13)C(=O)N2` [10740/C03], −129.3%. Consider `Cc1c(Br)cc(Br)c2c1C(=Cc1ccnc3ccccc13)C(=O)N2` [10740/H03], for which the “Flk Kinase % Inhibition (P.110)” value is given as −9.7%. Regarding `O=C1Nc2c(Br)cc(Br)cc2C1=Cc1ccsc1` [10740/A05], the “Flk Kinase % Inhibition (P.110)” value is on record as −13.1%. For `Cc1[nH]c2ccccc2c1C=C1C(=O)Nc2ccc(S(=O)(=O)Nc3ccc(C(F)(F)F)cc3)cc21` [10740/E08], the “Flk Kinase % Inhibition (P.110)” value is reported as 39.1%. As for `Cn1cc(C=C2C(=O)Nc3ccc(S(=O)(=O)N4CCOCC4)cc32)c2ccccc21` [10740/F07], the figure is −6.3%; as for `O=C1Nc2ccc(CCCl)cc2C1=Cc1ccsc1` [10740/G05], −18.6%; as for `O=C1Nc2ccc(CCCl)cc2C1=Cc1cc(Br)cs1` [10740/G10], −2.8%. As for `COC1CCCN1C=C1C(=O)Nc2ccc(CCCl)cc21` (stereo not drawn) [10740/G04], the figure is −5.1%; as for `O=C1Nc2ccc(S(=O)(=O)N3CCOCC3)cc2C1=Cc1cc(Br)cs1` [10740/F10], 10.0%; as for `COC1CCCN1C=C1C(=O)Nc2ccc(S(=O)(=O)N3CCOCC3)cc21` (stereo not drawn) [10740/F04], 6.8%.

Regarding `O=C1Nc2ccc(CCCl)cc2C1=Cc1cnc2ccccc2c1` [10740/G02], the “Flk Kinase % Inhibition (P.110)” value is given as −2.6%.

For the compound `Cn1cc(C=C2C(=O)Nc3ccc(CCCl)cc32)c2ccccc21` [10740/G07], the “Flk Kinase % Inhibition (P.110)” value is 0.4%. Take `Cn1cc(C=C2C(=O)Nc3ccc(S(=O)(=O)Nc4ccc(C(F)(F)F)cc4)cc32)c2ccccc21` [10740/E07]: the “Flk Kinase % Inhibition (P.110)” value worked out at 34.4%. For the compound `Cc1c(Br)cc(Br)c2c1C(=Cc1cc(Br)cs1)C(=O)N2` [10740/H10], the “Flk Kinase % Inhibition (P.110)” value turned out to be 0.4%. `CNS(=O)(=O)c1ccc2c(c1)C(=Cc1ccsc1)C(=O)N2` [10740/D05]: the “Flk Kinase % Inhibition (P.110)” value is reported as −6.3%. As for `O=C1Nc2ccc(I)cc2C1=Cc1ccnc2ccccc12` [10740/B03], the figure is −9.3%; as for `CNS(=O)(=O)c1ccc2c(c1)C(=Cc1cn(C)c3ccccc13)C(=O)N2` [10740/D07], −4.5%.

For the compound `Cn1cc(C=C2C(=O)Nc3ccc(I)cc32)c2ccccc21` [10740/B07], the “Flk Kinase % Inhibition (P.110)” value is listed as −8.5%. As to `Cc1[nH]c2ccccc2c1C=C1C(=O)Nc2ccc(CCCl)cc21` [10740/G08], the “Flk Kinase % Inhibition (P.110)” value is listed as −0.5%. Then `O=C1Nc2c(Br)cc(Br)cc2C1=Cc1cc(Br)cs1` [10740/A10], with −7.7%; and `O=C1Nc2ccc(S(=O)(=O)Nc3ccc(C(F)(F)F)cc3)cc2C1=Cc1ccc2ccccc2n1` [10740/E06], with −8.4%. With `CCCCOc1ccc(C=C2C(=O)Nc3ccc(S(=O)(=O)N4CCOCC4)cc32)cc1` [10740/F11], the “Flk Kinase % Inhibition (P.110)” value is recorded as 8.2%.

For `Cc1[nH]c2ccccc2c1C=C1C(=O)Nc2c(Br)cc(Br)cc21` [10740/A08], the “Flk Kinase % Inhibition (P.110)” value is −18.3%. Turning to `O=C1Nc2c(Br)cc(Br)cc2C1=Cc1cnc2ccccc2c1` [10740/A02], the “Flk Kinase % Inhibition (P.110)” value is recorded as 5.7%.

In the case of `O=C1Nc2ccc(S(=O)(=O)N3CCOCC3)cc2C1=Cc1cnc2ccccc2c1` [10740/F02], the “Flk Kinase % Inhibition (P.110)” value is listed as 2.8%. Then `O=C1Nc2ccc(S(=O)(=O)N3CCOCC3)cc2C1=Cc1ccc2ccccc2n1` [10740/F06], with 1.3%; and `O=C1Nc2ccc(S(=O)(=O)N3CCOCC3)cc2C1=Cc1ccnc2ccccc12` [10740/F03], with −0.9%; and `CCCCOc1ccc(C=C2C(=O)Nc3ccc(Br)c(C)c32)cc1` [10740/C11], with 6.9%. `CNS(=O)(=O)c1ccc2c(c1)C(=Cc1ccc3ccccc3n1)C(=O)N2` [10740/D06]: the “Flk Kinase % Inhibition (P.110)” value was determined as 9.6%.

For `CCCCOc1ccc(C=C2C(=O)Nc3ccc(S(=O)(=O)NC)cc32)cc1` [10740/D11], the “Flk Kinase % Inhibition (P.110)” value was 3.0%.

In the case of `Cc1[nH]c2ccccc2c1C=C1C(=O)Nc2ccc(Br)c(C)c21` [10740/C08], the “Flk Kinase % Inhibition (P.110)” value was determined as 4.6%. As to `CCCCOc1ccc(C=C2C(=O)Nc3c(Br)cc(Br)cc32)cc1` [10740/A11], the “Flk Kinase % Inhibition (P.110)” value is −3.5%. As for `O=C1Nc2ccc(S(=O)(=O)N3CCOCC3)cc2C1=Cc1ccsc1` [10740/F05], the “Flk Kinase % Inhibition (P.110)” value was −13.5%.

As for `O=C1Nc2ccc(I)cc2C1=Cc1ccsc1` [10740/B05], the “Flk Kinase % Inhibition (P.110)” value is listed as −11.6%. Then `O=C1Nc2c(Br)cc(Br)cc2C1=Cc1ccc2ccccc2n1` [10740/A06], with −8.7%. Take `CCCCOc1ccc(C=C2C(=O)Nc3ccc(CCCl)cc32)cc1` [10740/G11]: the “Flk Kinase % Inhibition (P.110)” value came out at 3.3%. As for `CNS(=O)(=O)c1ccc2c(c1)C(=Cc1c(C)[nH]c3ccccc13)C(=O)N2` [10740/D08], the figure is −6.4%. Then `COC1CCCN1C=C1C(=O)Nc2c(Br)cc(Br)c(C)c21` (stereo not drawn) [10740/H04], with 6.0%. For `Cc1c(Br)ccc2c1C(=Cc1cc(Br)cs1)C(=O)N2` [10740/C10], the “Flk Kinase % Inhibition (P.110)” value is reported as 0.8%.
